Experimental findings from patent US20230066156A1, “6-SUBSTITUTED, 22-CYANO HYODEOXYCHOLANIC ANALOGUES AND USES THEREOF” (PRECISION BIO-THERAPEUTICS S.R.L., priority 2019, published 2023) are described below.

The test has as its target T1, FXR (Homo sapiens, UniProt Q96RI1).
T1 construct: expressed in transfected cells; host or cells: HepG2
T1 sequence (Q96RI1 1-486): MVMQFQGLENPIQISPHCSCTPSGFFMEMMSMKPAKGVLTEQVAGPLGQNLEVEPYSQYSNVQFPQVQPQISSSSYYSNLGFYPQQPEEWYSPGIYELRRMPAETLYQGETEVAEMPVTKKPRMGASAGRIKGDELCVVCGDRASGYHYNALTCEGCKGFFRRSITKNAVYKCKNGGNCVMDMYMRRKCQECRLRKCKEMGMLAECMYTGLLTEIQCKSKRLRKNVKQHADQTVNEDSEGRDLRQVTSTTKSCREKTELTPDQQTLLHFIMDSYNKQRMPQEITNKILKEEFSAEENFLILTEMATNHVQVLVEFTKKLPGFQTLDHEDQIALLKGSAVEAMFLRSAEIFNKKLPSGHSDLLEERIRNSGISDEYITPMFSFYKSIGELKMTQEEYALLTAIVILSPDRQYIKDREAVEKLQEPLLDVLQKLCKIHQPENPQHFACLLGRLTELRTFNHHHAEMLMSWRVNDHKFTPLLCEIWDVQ
T1 sequence (P19793 1-462 partner): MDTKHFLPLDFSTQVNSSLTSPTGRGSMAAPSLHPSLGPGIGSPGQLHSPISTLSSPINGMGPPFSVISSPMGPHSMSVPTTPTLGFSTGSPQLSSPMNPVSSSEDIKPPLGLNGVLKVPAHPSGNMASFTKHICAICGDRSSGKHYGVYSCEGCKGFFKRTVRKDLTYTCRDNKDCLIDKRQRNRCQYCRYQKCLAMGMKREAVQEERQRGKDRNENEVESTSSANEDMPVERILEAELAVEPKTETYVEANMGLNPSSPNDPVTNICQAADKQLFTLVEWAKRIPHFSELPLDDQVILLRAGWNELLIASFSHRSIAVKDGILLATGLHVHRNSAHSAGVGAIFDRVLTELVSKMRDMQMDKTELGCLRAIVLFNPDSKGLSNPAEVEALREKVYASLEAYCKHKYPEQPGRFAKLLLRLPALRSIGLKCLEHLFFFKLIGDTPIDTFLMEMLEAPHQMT
The test can be described thus: FXR mediated transactivation, IR1 (hsp27)-luciferase reporter in transfected HepG2 cells. The format is cell-based. To be noted: compound at 10 μM, HepG2, vs maximal transactivation by CDCA 10 μM, triplicate. The procedure: Selected compounds were tested in vitro on FXR and TGR5/GPBAR1 receptors (Table 1) using a whole cell model transfected with a reporter genes. The activity was evaluated in comparison with chenodeoxycholic acid (CDCA) and TLCA.
CDCA is a primary bile acid that functions as an endogenous ligand for FXR, while TLCA is a physiological ligand for TGR5/GPBAR1. In this assay, HepG2 cells (a liver-derived cell line) were cultured at 37° C. in minimum essential medium with Earl's salts containing 10% fetal bovine serum (FBS), 1% L-glutamine, and 1% penicillin/streptomycin. HEK-293T cells were cultured at 37° C. in D-MEM containing 10% fetal bovine serum (FBS), 1% L-glutamine, and 1% penicillin/streptomycin. The transfection experiments were performed using Fugene HD according to manufactured specifications. Cells were plated in a 24-well plate at 5×10^4 cells/well. For FXR mediated transactivation, HepG2 cells were transfected with 100 ng of pSG5-FXR, 100 ng of pSG5-RXR, 100 ng of pGL4.70 a vector encoding the human Renilla gene and 250 ng of the reporter vector p(hsp27)-TK-LUC containing the FXR response element IR1 cloned from the promoter of heat shock protein 27 (hsp27).
The data on the activity of certain compounds of the invention on TGR5/GPBAR1 are described in the following table 1. In this table, activities for compounds of the invention on GPBAR1 was compared to those of the reference compound TLCA. For % of activity, each compound was tested at the concentration of 10 microM and transactivation activity of TLCA on CRE (i.e. TGR5/GPBAR1) was considered equal to 100%. For selectivity toward FXR, activity was assessed in HepG2 cells transfected with an FXR responsive element (IR1) cloned upstream to the luciferase gene. For calculation of efficacy data, maximal transactivation of IR1 caused by each compound (10 μM) was compared to maximal transactivation caused by CDCA (10 μM). GPBAR1/FXR selectivity calculated as ratio between % of activity toward GPBAR1 and % of activity toward FXR. Each experiment was conducted in triplicate.

Take `CC[C@]1(O)C[C@H]2[C@@H]3CC[C@H]([C@H](C)CC#N)[C@@]3(C)CC[C@@H]2[C@@]2(C)CC[C@@H](O)C[C@@H]12` [PBT110B, 3α,6α-dihydroxy-6β-ethyl-24-nor-5β-cholan-23-nitrile]: the “FXR (% of activity in comparison to 10 μM CDCA)” value is given as 12.3 ± 0.47%.
